Measured values: PMC10999558, “Analyzing resistome in soil and Human gut: a study on the characterization and risk evaluation of antimicrobial peptide resistance” (Frontiers in Microbiology, 2024)

How the values were obtained:
Type in all cases: cell-based, Escherichia coli
Settings in all cases: MHB, 37°C, 24 h, triplicate
[1] = system: E. coli DH5α; assay: MIC, broth microdilution, E. coli DH5α carrying pUC118 or resistance-conferring plasmids
Description: (§1) Escherichia coli DH5α, E. coli BL21(DE3), and E. coli JM109 were utilized in this study.
(§2) The MICs were determined using the broth microdilution method in 96-well microtiter plates ([Wiegand et al., 2008]). In brief, a 1:100 dilution of the mid-exponential phase bacterial culture (OD600 = 0.5), consisting of 5 μL (1 × 10^5 CFU/mL), was introduced into polypropylene 96-well plates. These plates contained a two-fold dilution series of AMP in a total volume of 100 μL MHB per well. The incubation of the plates occurred at 37°C in a humidity chamber. The MIC was identified as the lowest concentration that hindered visible bacterial growth after 24 h of incubation. Each experiment was conducted in triplicate.
(§3) Following validation, the colonies displaying resistance underwent additional testing via MIC assessments for the remaining four AMPs that were not employed during the selection process. This experimental procedure was carried out in triplicate.

[2] = system: E. coli JM109; assay: MIC, broth microdilution, retransformed E. coli JM109
Description: as §1, §2
(§4) Before washing down the colonies, we randomly selected two clones from each plate containing distinct AMP. Colony PCRs were conducted using M13 primer pairs to validate the presence of inserts and determine their sizes. The selected colonies were then subjected to sequencing. The specific details are provided in Supplementary Table S2. Following that, plasmids were isolated using the Plasmid Midiprep Kit (Zomanbio, ZP103) following the manufacturer’s guidelines. After the plasmids were successfully reintroduced into E. coli JM109 and E. coli BL 21(DE3), the MICs of the transformed strains against the AMP used for selection were tested. This testing process was carried out in triplicate.
as §3

[3] = system: E. coli BL21(DE3); assay: MIC, broth microdilution, retransformed E. coli BL21(DE3)
Description: as §1, §2, §4, §3

Substance: Colistin [CST]
- MIC ([1]; E. coli DH5α containing pUC118 plasmids): 0.25 µg/mL
- MIC ([1]; colony pUC118-DH5α (control, no insert)): 0.25 µg/mL
- MIC ([1]; colony pUC118-FCST1-DH5α (feces insert 1 selected against colistin)): 0.5 µg/mL
- MIC ([1]; colony pUC118-FCST2-DH5α (feces insert 2 selected against colistin)): 0.5 µg/mL
- MIC ([1]; colony pUC118-FGQ1-DH5α (feces insert 1 selected against melittin)): 0.5 µg/mL
- MIC ([1]; colony pUC118-FGQ2-DH5α (feces insert 2 selected against melittin)): 0.5 µg/mL
- MIC ([1]; colony pUC118-FIB1-DH5α (feces insert 1 selected against iseganan)): 0.25 µg/mL
- MIC ([1]; colony pUC118-FIB2-DH5α (feces insert 2 selected against iseganan)): 1 µg/mL
- MIC ([1]; colony pUC118-FPB1-DH5α (feces insert 1 selected against polymyxin B)): 2 µg/mL
- MIC ([1]; colony pUC118-FPB2-DH5α (feces insert 2 selected against polymyxin B)): 1 µg/mL
- MIC ([1]; colony pUC118-FSA1-DH5α (feces insert 1 selected against cathelicidin-DM)): 0.5 µg/mL
- MIC ([1]; colony pUC118-FSA2-DH5α (feces insert 2 selected against cathelicidin-DM)): 0.5 µg/mL
- MIC ([1]; colony pUC118-SCST1-DH5α (soil insert 1 selected against colistin)): 0.5 µg/mL
- MIC ([1]; colony pUC118-SCST2-DH5α (soil insert 2 selected against colistin)): 1 µg/mL
- MIC ([1]; colony pUC118-SGQ1-DH5α (soil insert 1 selected against melittin)): 0.25 µg/mL
- MIC ([1]; colony pUC118-SGQ2-DH5α (soil insert 2 selected against melittin)): 0.25 µg/mL
- MIC ([1]; colony pUC118-SIB1-DH5α (soil insert 1 selected against iseganan)): 0.25 µg/mL
- MIC ([1]; colony pUC118-SIB2-DH5α (soil insert 2 selected against iseganan)): 0.25 µg/mL
- MIC ([1]; colony pUC118-SPB1-DH5α (soil insert 1 selected against polymyxin B)): 0.25 µg/mL
- MIC ([1]; colony pUC118-SPB2-DH5α (soil insert 2 selected against polymyxin B)): 0.5 µg/mL
- MIC ([1]; colony pUC118-SSA1-DH5α (soil insert 1 selected against cathelicidin-DM)): 0.5 µg/mL
- MIC ([1]; colony pUC118-SSA2-DH5α (soil insert 2 selected against cathelicidin-DM)): 1 µg/mL
- MIC ([2]; colony pUC118-FCST1-JM109 (feces insert 1 selected against colistin)): 0.5 µg/mL
- MIC ([2]; colony pUC118-FCST2-JM109 (feces insert 2 selected against colistin)): 1 µg/mL
- MIC ([2]; colony pUC118-FGQ1-JM109 (feces insert 1 selected against melittin)): 0.5 µg/mL
- MIC ([2]; colony pUC118-FGQ2-JM109 (feces insert 2 selected against melittin)): 0.5 µg/mL
- MIC ([2]; colony pUC118-FIB1-JM109 (feces insert 1 selected against iseganan)): 0.25 µg/mL
- MIC ([2]; colony pUC118-FIB2-JM109 (feces insert 2 selected against iseganan)): 0.5 µg/mL
- MIC ([2]; colony pUC118-FPB1-JM109 (feces insert 1 selected against polymyxin B)): 1 µg/mL
- MIC ([2]; colony pUC118-FPB2-JM109 (feces insert 2 selected against polymyxin B)): 0.5 µg/mL
- MIC ([2]; colony pUC118-FSA1-JM109 (feces insert 1 selected against cathelicidin-DM)): 2 µg/mL
- MIC ([2]; colony pUC118-FSA2-JM109 (feces insert 2 selected against cathelicidin-DM)): 0.5 µg/mL
- MIC ([2]; colony pUC118-JM109 (control, no insert)): 0.25 µg/mL
- MIC ([2]; colony pUC118-SCST1-JM109 (soil insert 1 selected against colistin)): 0.5 µg/mL
- MIC ([2]; colony pUC118-SCST2-JM109 (soil insert 2 selected against colistin)): 0.5 µg/mL
- MIC ([2]; colony pUC118-SGQ1-JM109 (soil insert 1 selected against melittin)): 0.25 µg/mL
- MIC ([2]; colony pUC118-SGQ2-JM109 (soil insert 2 selected against melittin)): 0.25 µg/mL
- MIC ([2]; colony pUC118-SIB1-JM109 (soil insert 1 selected against iseganan)): 0.25 µg/mL
- MIC ([2]; colony pUC118-SIB2-JM109 (soil insert 2 selected against iseganan)): 0.25 µg/mL
- MIC ([2]; colony pUC118-SPB1-JM109 (soil insert 1 selected against polymyxin B)): 0.25 µg/mL
- MIC ([2]; colony pUC118-SPB2-JM109 (soil insert 2 selected against polymyxin B)): 0.5 µg/mL
- MIC ([2]; colony pUC118-SSA1-JM109 (soil insert 1 selected against cathelicidin-DM)): 0.5 µg/mL
- MIC ([2]; colony pUC118-SSA2-JM109 (soil insert 2 selected against cathelicidin-DM)): 0.25 µg/mL
- MIC ([3]; colony pUC118-BL21(DE3) (control, no insert)): 1 µg/mL
- MIC ([3]; colony pUC118-FCST1-BL21(DE3) (feces insert 1 selected against colistin)): 2 µg/mL
- MIC ([3]; colony pUC118-FCST2-BL21(DE3) (feces insert 2 selected against colistin)): 2 µg/mL
- MIC ([3]; colony pUC118-FGQ1-BL21(DE3) (feces insert 1 selected against melittin)): 2 µg/mL
- MIC ([3]; colony pUC118-FGQ2- BL21(DE3) (feces insert 2 selected against melittin)): 2 µg/mL
- MIC ([3]; colony pUC118-FIB1-BL21(DE3) (feces insert 1 selected against iseganan)): 1 µg/mL
- MIC ([3]; colony pUC118-FIB2-BL21(DE3) (feces insert 2 selected against iseganan)): 2 µg/mL
- MIC ([3]; colony pUC118-FPB1-BL21(DE3) (feces insert 1 selected against polymyxin B)): 4 µg/mL
- MIC ([3]; colony pUC118-FPB2-BL21(DE3) (feces insert 2 selected against polymyxin B)): 2 µg/mL
- MIC ([3]; colony pUC118-FSA1-BL21(DE3) (feces insert 1 selected against cathelicidin-DM)): 2 µg/mL
- MIC ([3]; colony pUC118-FSA2-BL21(DE3) (feces insert 2 selected against cathelicidin-DM)): 2 µg/mL
- MIC ([3]; colony pUC118-SCST1-BL21(DE3) (soil insert 1 selected against colistin)): 2 µg/mL
- MIC ([3]; colony pUC118-SCST2-BL21(DE3) (soil insert 2 selected against colistin)): 2 µg/mL
- MIC ([3]; colony pUC118-SGQ1-BL21(DE3) (soil insert 1 selected against melittin)): 1 µg/mL
- MIC ([3]; colony pUC118-SGQ2-BL21(DE3) (soil insert 2 selected against melittin)): 1 µg/mL
- MIC ([3]; colony pUC118-SIB1-BL21(DE3) (soil insert 1 selected against iseganan)): 1 µg/mL
- MIC ([3]; colony pUC118-SIB2-BL21(DE3) (soil insert 2 selected against iseganan)): 1 µg/mL
- MIC ([3]; colony pUC118-SPB1-BL21(DE3) (soil insert 1 selected against polymyxin B)): 1 µg/mL
- MIC ([3]; colony pUC118-SPB2-BL21(DE3) (soil insert 2 selected against polymyxin B)): 2 µg/mL
- MIC ([3]; colony pUC118-SSA1-BL21(DE3) (soil insert 1 selected against cathelicidin-DM)): 2 µg/mL
- MIC ([3]; colony pUC118-SSA2-BL21(DE3) (soil insert 2 selected against cathelicidin-DM)): 2 µg/mL
